Reference: PMC12583094, “A novel antioxidant peptide from black soybean [Glycine max (L.) Merr.] with verified MPO interaction and multi-scale antioxidant activity” (Frontiers in Nutrition, 2025)
Read-outs that look alike come from different tables or passages of the source. No end group written: not given here.

Columns and labels:
[1] = peptide from cherry seeds; cited from earlier work
[2] = peptide from cherry seeds, molecular dynamics simulation; cited from earlier work
Text: The root mean square deviation (RMSD) value reflects the deviation of the complex from its initial conformation over the course of the simulation. RMSD fluctuations are directly indicative of conformational stability, with deviations below 0.5 nm generally considered acceptable ([34]). […] In this surface, blue to white regions indicate low free energy value, whereas yellow to red regions reflect higher energy states. […] For the MPO–[…] complex, the energy p ...

[3] = cited from earlier work; for antioxidant bioactivity: peptides from sturgeon ovarian protein hydrolysates; for antioxidant activity and free radical scavenging: peptides from black soybean processing by-products; for radical scavenging activity: peptides from Thunnus albacares protein hydrolysates
Text: Black soybean [Glycine max (L.) Merr.], belonging to the family Fabaceae, subfamily Faboideae, genus Glycine, and subgenus Soja, is a traditional legume crop characterized by its black seed coat. It has been cultivated in China for thousands of years, and China remains the largest producer and consumer of soybeans globally, with substantial production and consumption of black soybean in particular ([8]).

[4] = DPPH radical scavenging assay; type: biochemical; settings: 50 μL + 450 μL of 0.1 mM DPPH in anhydrous ethanol, dark, room temperature, 30 min, 517 nm, mean ± SD, n = 3
Experimental: Prior to the assay, the microplate reader was preheated for 1 h. The peptide samples were dissolved in sterile water to prepare a concentration gradient of 0.1, 1, 5, and 10 mg/mL. For the DPPH assay, 50 μL of sterile water and 450 μL of DPPH solution (0.1 mM in anhydrous ethanol) were added to the blank tube. For the control tube, 50 μL of peptide solution and 450 μL of anhydrous ethanol were mixed. For the sample tubes, 50 μL of peptide solution and 450 μL of DPPH solution were combined. All mixtures were incubated in the dark at room temperature for 30 min. Absorbance was measured at 517 nm using a UV–visible spectrophotometer.

[5] = ABTS radical scavenging assay; type: biochemical; settings: ABTS solution diluted 20-fold with anhydrous ethanol, 30 min dark, 734 nm, mean ± SD, n = 3
Experimental: For the ABTS assay, ABTS radical solution was prepared by mixing Reagent A and Reagent B (from the assay kit) at a 1:1 volume ratio, followed by incubation in the dark for 12 h. The resulting ABTS solution was diluted 20-fold with anhydrous ethanol before use. The blank, control, and sample solutions were prepared in the same manner as in the DPPH assay, followed by 30 min of dark incubation. Absorbance was measured at 734 nm. The radical scavenging activity was calculated using the formula reported by Thanyaporn Aursuwanna et al. ([22]).

[6] = cited from earlier work; for ABTS radical scavenging rate at 1 mg/mL / DPPH radical scavenging rate at 1 mg/mL: peptide from Glycine max hydrolysate
Text: (§1) Similarly, Zhang et al. identified two antioxidant peptides, VVFVDRL and […], from Glycine max hydrolysate, both of which contain N-terminal valine residues. […] This enhanced activity was attributed to the presence of repeating amino acids within the peptide sequences, a feature that has also been associated with stronger bioactivity in antioxidant peptid ...

HaCaT cells [7] = type: cell-based, human; settings: 24 h, 1000 μg/mL
Experimental: HaCaT cell recovery, culture, and subculture were performed with reference to the method described by Yusha Zi et al., with some modifications ([23]). For recovery, cryopreserved HaCaT cells were retrieved from liquid nitrogen storage and quickly thawed in a 37 °C water bath with gentle shaking. Just before complete thawing, the tube was removed from the water bath, and the cell suspension was immediately transferred into a 15 mL centrifuge tube containing 9 mL of pre-warmed complete medium. The complete medium consisted of DMEM supplemented with 10% fetal bovine serum (FBS) and 1% penicillin–streptomycin (P/S). Cells were centrifuged at 800 rpm for 5 min at 4 °C. After discarding the supernatant, the cell pellet was resuspended in 5 mL of fresh complete medium and transferred to a culture flask equipped with a ventilated cap. Cells were incubated in a humidified incubator at 37 °C with 5% CO₂ and 95% humidity. For subculturing, when cell confluence reached approximately 80%, the medium was discarded, and the cells were gently rinsed three times with 2 mL of PBS. […] The plate was incubated for an appropriate period, and the absorbance at 450 nm was measured using a microplate reader. Cell viability was calculated using the following formula: Cell viability(%)=100%×(ODsample−ODblank)/(ODcontrol−ODblank). […] The absorbance was measured and cell viability was calculated under the same conditions.

HaCaT cells [8] = experiment: CCK8 cell viability, concentration screening in HaCaT cells; type: cell-based, human; settings: 24 h, CCK8, 450 nm, vs control, n = 3
Experimental: HaCaT cell recovery, culture, and subculture were performed with reference to the method described by Yusha Zi et al., with some modifications ([23]). For recovery, cryopreserved HaCaT cells were retrieved from liquid nitrogen storage and quickly thawed in a 37 °C water bath with gentle shaking. Just before complete thawing, the tube was removed from the water bath, and the cell suspension was immediately transferred into a 15 mL centrifuge tube containing 9 mL of pre-warmed complete medium. The complete medium consisted of DMEM supplemented with 10% fetal bovine serum (FBS) and 1% penicillin–streptomycin (P/S). Cells were centrifuged at 800 rpm for 5 min at 4 °C. After discarding the supernatant, the cell pellet was resuspended in 5 mL of fresh complete medium and transferred to a culture flask equipped with a ventilated cap. Cells were incubated in a humidified incubator at 37 °C with 5% CO₂ and 95% humidity.
For subculturing, when cell confluence reached approximately 80%, the medium was discarded, and the cells were gently rinsed three times with 2 mL of PBS. Then, 1 mL of 0.25% trypsin solution was added, and the flask was incubated at 37 °C for about 1 min. Once the cells became round and partially detached (as observed under a microscope), 3 mL of complete medium was added to terminate the digestion. The cell suspension was gently pipetted to disperse the cells and transferred to a 15 mL centrifuge tube. After centrifugation at 800 rpm for 5 min at 4 °C, the supernatant was discarded. The pellet was resuspended in fresh medium and seeded into new culture flasks at a ratio of 1:3, followed by incubation under the same culture conditions.
After digestion and resuspension, HaCaT cells were seeded into a 96-well plate at a concentration of 1 × 10^^4 cells/ml, with 100 μL of complete culture medium added to each well. Three wells with no cells were treated with an equal volume of complete culture medium as the blank group. The cells were incubated for 24 h to allow attachment. For the experiment, the control and blank groups were replaced with an equal volume of fresh medium, while the treatment groups were treated with a concentration gradient of 100, 200, 500, 1,000, and 1,500 μg/mL H2O2 and peptide samples. The H2O2 group was incubated for 1 h, while the peptide sample group was incubated for 24 h. After incubation, the original medium was discarded, and 100 μL of CCK8 working solution (prepared from 90% DMEM + 10% CCK8 reagent) was added to each well. The blank group, which contained no cells, was used as the reference. The plate was incubated for an appropriate period, and the absorbance at 450 nm was measured using a microplate reader. Cell viability was calculated using the following formula:
Cell viability(%)=100%×(ODsample−ODblank)/(ODcontrol−ODblank).

MPO = settings: cited from earlier work
Text: as §1

[9] = peptide from foxtail millet prolamin

For “LYSPH [antioxidant peptide LYSPH, derived from cherry seeds]”, which docking binding energy [1] is on record?
The docking binding energy was -7.9 kcal/mol.

And the “number of hydrogen bonds” value [2]?
Its value is 3 ± 1 hydrogen bonds.

Which antioxidant bioactivity [3] does the source give for “FEGPPFKF [antioxidant peptide from sturgeon ovarian protein hydrolysates]” here?
The antioxidant bioactivity was “demonstrated antioxidant bioactivity”.

Which antioxidant bioactivity [3] does the source give for “FDWDRL [antioxidant peptide from sturgeon ovarian protein hydrolysates]” here?
Its antioxidant bioactivity is “demonstrated antioxidant bioactivity”.

With “IVPK [peptide from black soybean processing by-products]” as the substance, how does the “antioxidant activity and free radical scavenging” value [3] read?
The value was “exhibited antioxidant activity and free radical scavenging capacity”.

For Glutathione [GSH], which “DPPH radical scavenging rate at 0.1 mg/mL” value ([4]; 0.1 mg/mL peptide solution) is on record?
The value was 27.72 ± 2.86%.

And the “DPPH radical scavenging rate at 1 mg/mL” value ([4]; 1 mg/mL peptide solution)?
Its value is 54.36 ± 3.61%.

What about the “DPPH radical scavenging rate at 5 mg/mL” value ([4]; 5 mg/mL peptide solution) of the same substance?
Its value is 69.01 ± 4.68%.

And the “DPPH radical scavenging rate at 10 mg/mL” value ([4]; 10 mg/mL peptide solution)?
Its value is 84.87 ± 1.39%.

What about the “ABTS radical scavenging rate at 0.1 mg/mL” value ([5]; 0.1 mg/mL) of the same substance?
Its value is 24.52 ± 4.01%.

What about the “ABTS radical scavenging rate at 1 mg/mL” value ([5]; 1 mg/mL) of the same substance?
The value was 40.76 ± 3.01%.

And the “ABTS radical scavenging rate at 5 mg/mL” value ([5]; 5 mg/mL)?
Its value is 60.28 ± 3.58%.

What about the “ABTS radical scavenging rate at 10 mg/mL” value ([5]; 10 mg/mL) of the same substance?
Its value is 82.92 ± 1.27%.

With “VVFVDRL [antioxidant peptide from Glycine max hydrolysate]” as the substance, how does the “ABTS radical scavenging rate at 1 mg/mL” value [6] read?
The value was roughly 50%.

And the “DPPH radical scavenging rate at 1 mg/mL” value [6]?
Its value is “approximately 40%”.

For “ACGSDGK [antioxidant peptide from Thunnus albacares protein hydrolysates]”, which radical scavenging activity [3] is on record?
The radical scavenging activity was “significant radical scavenging activity”.

What does the source list for “VIYVVDLR [antioxidant peptide from Glycine max hydrolysate]”?
ABTS radical scavenging rate at 1 mg/mL [6]: ~50%; DPPH radical scavenging rate at 1 mg/mL [6]: approximately 40%

For “LVPK [peptide from black soybean processing by-products]”, which “antioxidant activity and free radical scavenging” value [3] is on record?
Its value is “exhibited antioxidant activity and free radical scavenging capacity”.

Which radical scavenging activity [3] does the source give for “KFCSGHA [antioxidant peptide from Thunnus albacares protein hydrolysates]” here?
Its radical scavenging activity is “significant radical scavenging activity”.

What does the source list for VPNHFNAP?
HaCaT cell viability, peptide pretreatment then H2O2 (HaCaT cells [7]): 64.38 ± 4.22%; effect on HaCaT cell viability, 1500 μg/mL (HaCaT cells [8]; peptide 1500 μg/mL): a marked decrease; effect on HaCaT cell viability, 100 to 1,000 μg/mL (HaCaT cells [8]; peptide 100 to 1,000 μg/mL): did not cause significant changes in cell viability

What does the source list for “VLIPMP [antioxidant peptide from foxtail millet prolamin]”?
ABTS IC₅₀ [6, 9]: 2.33 mg/mL; DPPH IC₅₀ [6, 9]: 4.45 mg/mL; number of hydrogen bonds formed with MPO (MPO): higher than that observed for VPNHFNAP; stability of the VLIPMP–MPO complex (MPO; molecular dynamics simulations): confirmed the stability of the VLIPMP–MPO complex; binding free energy calculated by MM-PBSA (MPO; with MPO): -40.83 ± 7.64 kcal/mol
